Test results from US6727205B2, “Plant growth regulators and methods for control and/or suppression of annual bluegrass” (BASF Aktiengesellschaft, priority 2001, dated 2004).

Columns and labels:
[1] = tested on: annual bluegrass (Poa Annua); assay: Percent control of annual bluegrass (browning, necrosis, melt-down, plant death); type: in vivo
Procedure: (§1) In this evaluation, annual bluegrass (Poa Annua) was grown, and the compounds were applied at various growth stages of the annual bluegrass as depicted in Table Ia using a randomized complete block design of four replications with ten treatments including one untreated control. The compounds were applied using water as the carrier. The results shown in Table Ib depict control of annual bluegrass, which includes browning, necrosis, melt-down and plant death. The results shown in Table Ic depict the amount of seeds on the plants and on the ground for the various treatments.

[2] = tested on: annual bluegrass (Poa Annua); assay: Seed/biomass effect on annual bluegrass at Day 212; type: in vivo; details: for Biomass Dry Weight: control (none) 251
Procedure: as §1

CCC(=O)C1=C([O-])CC(C(=O)[O-])CC1=O.[Ca+2] (centres unmarked) [Prohexadione-Calcium, calsium 3,5-dioxo-4-(1-oxopropyl)cyclohexanecarboxylate]
% Control at Days After First Treatment (DAT) ([1]; 17 DAT, application time A (seedling, day 1), rate 0.125 lb/A (140)): 0%
% Control at Days After First Treatment (DAT) ([1]; 17 DAT, application times A + B (seedling, days 1 and 15), rate A = 0.125 (140) + B = 0.125 (140) lb/A): 0%
% Control at Days After First Treatment (DAT) ([1]; 43 DAT, application time A (seedling, day 1), rate 0.125 lb/A (140)): 0%
% Control at Days After First Treatment (DAT) ([1]; 43 DAT, application time C (tillering, day 35), rate 0.125 lb/A (140)): 0%
% Control at Days After First Treatment (DAT) ([1]; 43 DAT, application times A + B (seedling, days 1 and 15), rate A = 0.125 (140) + B = 0.125 (140) lb/A): 0%
% Control at Days After First Treatment (DAT) ([1]; 77 DAT, application time A (seedling, day 1), rate 0.125 lb/A (140)): 0%
% Control at Days After First Treatment (DAT) ([1]; 77 DAT, application time C (tillering, day 35), rate 0.125 lb/A (140)): 0%
% Control at Days After First Treatment (DAT) ([1]; 77 DAT, application times A + B (seedling, days 1 and 15), rate A = 0.125 (140) + B = 0.125 (140) lb/A): 0%
% Control at Days After First Treatment (DAT) ([1]; 77 DAT, application times C + D (tillering, days 35 and 51), rate C = 0.125 (140) + D = 0.125 (140) lb/A): 0%
% Control at Days After First Treatment (DAT) ([1]; 151 DAT, application time A (seedling, day 1), rate 0.125 lb/A (140)): 0%
% Control at Days After First Treatment (DAT) ([1]; 151 DAT, application time C (tillering, day 35), rate 0.125 lb/A (140)): 0%
% Control at Days After First Treatment (DAT) ([1]; 151 DAT, application times A + B (seedling, days 1 and 15), rate A = 0.125 (140) + B = 0.125 (140) lb/A): 0%
% Control at Days After First Treatment (DAT) ([1]; 151 DAT, application times C + D (tillering, days 35 and 51), rate C = 0.125 (140) + D = 0.125 (140) lb/A): 0%
% Control at Days After First Treatment (DAT) ([1]; 172 DAT, application time A (seedling, day 1), rate 0.125 lb/A (140)): 0%
% Control at Days After First Treatment (DAT) ([1]; 172 DAT, application time C (tillering, day 35), rate 0.125 lb/A (140)): 0%
% Control at Days After First Treatment (DAT) ([1]; 172 DAT, application time F (flowering to soft dough, day 155), rate 0.250 lb/A (280)): 60%
% Control at Days After First Treatment (DAT) ([1]; 172 DAT, application times A + B (seedling, days 1 and 15), rate A = 0.125 (140) + B = 0.125 (140) lb/A): 0%
% Control at Days After First Treatment (DAT) ([1]; 172 DAT, application times C + D (tillering, days 35 and 51), rate C = 0.125 (140) + D = 0.125 (140) lb/A): 0%
% Control at Days After First Treatment (DAT) ([1]; 204 DAT, application time A (seedling, day 1), rate 0.125 lb/A (140)): 0%
% Control at Days After First Treatment (DAT) ([1]; 204 DAT, application time C (tillering, day 35), rate 0.125 lb/A (140)): 0%
% Control at Days After First Treatment (DAT) ([1]; 204 DAT, application time F (flowering to soft dough, day 155), rate 0.250 lb/A (280)): 95%
% Control at Days After First Treatment (DAT) ([1]; 204 DAT, application times A + B (seedling, days 1 and 15), rate A = 0.125 (140) + B = 0.125 (140) lb/A): 0%
% Control at Days After First Treatment (DAT) ([1]; 204 DAT, application times C + D (tillering, days 35 and 51), rate C = 0.125 (140) + D = 0.125 (140) lb/A): 0%
Seeds on Ground ([2]; application time F, prohexadione-calcium treatment, control (none) 30): 50 g/5 sq ft
Seeds on Plant ([2]; application time F, prohexadione-calcium treatment, control (none) 37): 34 g/5 sq ft
Biomass Dry Weight ([2]; application time F, prohexadione-calcium treatment): 188 g/5 sq ft
Seeds on Ground ([2]; application time F, prohexadione-calcium treatment, control (none) 669): 583 seeds/0.3 g
Seeds on Plant ([2]; application time F, prohexadione-calcium treatment, control (none) 864): 822 seeds/0.3 g

CP(=O)(O)CCC(N)C(=O)O (centres unmarked) [Glufosinate-Ammonium, 2-amino-4-(hydoxymethylphosphinyl)butanoic acid]
% Control at Days After First Treatment (DAT) ([1]; 17 DAT, application time A (seedling, day 1), rate 0.375 lb/A (420)): 80%
% Control at Days After First Treatment (DAT) ([1]; 43 DAT, application time A (seedling, day 1), rate 0.375 lb/A (420)): 80%
% Control at Days After First Treatment (DAT) ([1]; 43 DAT, application time C (tillering, day 35), rate 0.375 lb/A (420)): 10%
% Control at Days After First Treatment (DAT) ([1]; 77 DAT, application time A (seedling, day 1), rate 0.375 lb/A (420)): 74%
% Control at Days After First Treatment (DAT) ([1]; 77 DAT, application time C (tillering, day 35), rate 0.375 lb/A (420)): 96%
% Control at Days After First Treatment (DAT) ([1]; 151 DAT, application time A (seedling, day 1), rate 0.375 lb/A (420)): 33%
% Control at Days After First Treatment (DAT) ([1]; 151 DAT, application time C (tillering, day 35), rate 0.375 lb/A (420)): 74%
% Control at Days After First Treatment (DAT) ([1]; 151 DAT, application time E (flowering, day 136), rate 0.375 lb/A (420)): 93%
% Control at Days After First Treatment (DAT) ([1]; 172 DAT, application time A (seedling, day 1), rate 0.375 lb/A (420)): 3%
% Control at Days After First Treatment (DAT) ([1]; 172 DAT, application time C (tillering, day 35), rate 0.375 lb/A (420)): 45%
% Control at Days After First Treatment (DAT) ([1]; 172 DAT, application time E (flowering, day 136), rate 0.375 lb/A (420)): 65%
% Control at Days After First Treatment (DAT) ([1]; 204 DAT, application time A (seedling, day 1), rate 0.375 lb/A (420)): 0%
% Control at Days After First Treatment (DAT) ([1]; 204 DAT, application time C (tillering, day 35), rate 0.375 lb/A (420)): 18%
% Control at Days After First Treatment (DAT) ([1]; 204 DAT, application time E (flowering, day 136), rate 0.375 lb/A (420)): 8%
Seeds on Ground ([2]; application time E, control (none) 30): 34 g/5 sq ft
Seeds on Plant ([2]; application time E, control (none) 37): 32 g/5 sq ft
Biomass Dry Weight ([2]; application time E): 184 g/5 sq ft
Seeds on Ground ([2]; application time E, control (none) 669): 816 seeds/0.3 g
Seeds on Plant ([2]; application time E, control (none) 864): 1000 seeds/0.3 g
